Data set [1] relates to human prostate cancer PC-3. As to the kind of experiment: Antitumor effect on human prostate cancer PC-3 tumor fragment implanted s.c. in nude mice. The data set is classed as in vivo.
Method: A necessary amount of FK228 was weighed and a solvent (10% HCO-60/saline) was added. The mixture was sonicated to allow for dissolution. A positive control substance Paclitaxel was dissolved in Cremophor EL/ethanol (1:1) solution to 24 mg/mL prior to the testing, and preserved in a refrigerator. When in use, it was diluted with a 9-fold amount of physiological saline to 2.4 mg/mL (solvent component: 5% Cremophor EL-5% ethanol-90% saline).
(§3) For antitumor test of the pharmaceutical agent, BALB/cANnNCrj-nu/nu mice (male, 6-week-old) were purchased from Charles River Japan and, after acclimation for not less than one week, used for the test. The mice were reared under an SPF environment and allowed a free access to water and feed.
A grown solid tumor was subcultured for not less than 3 generations and used for the test.
(§4) A solid tumor subcultured in a nude mouse was subcutaneously implanted in the right back of a mouse as an about 3 mm square tumor tissue fragment. […]
(§5) The administration was started on the day of grouping (Day 0). […] The amount of liquid for each administration was calculated (0.1 mL/10 g body weight) based on the body weight measured on the administration day.
(§6) The tumor size (longer diameter, shorter diameter) and body weight were measured twice a week from Day 0.
(§7) The level of tumor growth was evaluated based on the tumor growth rate (Relative Tumor Volume). […]
In data set [2] the test system is human kidney cancer ACHN. As to the kind of experiment: Antitumor effect on human kidney cancer ACHN tumor fragment implanted s.c. in nude mice. The data set is classed as in vivo.
Method: A necessary amount of FK228 was weighed and a solvent (10% HCO-60/saline) was added. The mixture was sonicated to allow for dissolution.
as §3
Cultured human kidney cancer cell line 1 (ACHN: available from ATCC) and human culture prostate cancer cell line 1 (PC-3: available from ATCC) were subcutaneously implanted at 2-3×10^7 cells in a nude mouse. A grown solid tumor was subcultured for not less than 3 generations and used for the test.
as §4, §5, §6, §7
The test system of data set [3] is human stomach cancer SC-6. As to the kind of experiment: Antitumor effect on human stomach cancer SC-6 tumor fragment implanted s.c. in nude mice. In kind it is in vivo. Particulars: SC-6 s.c. in nude mice, 3.2 mg/kg i.v. An excerpt: (§1) A solid tumor subcultured in a nude mouse was subcutaneously implanted in the right back of a mouse as an about 3 mm square tumor tissue fragment. After the tumor implantation, when the tumor volume (½×longer diameter×shorter diameter^2) reached 100-300 mm^3, the mice were grouped into 6 mice per group to level the tumor size.
human gastric cancer SC-6; obtained from Central Institute for Experimental Animals (tumor fragment 3 mm×3 mm×3 mm/mouse implantation site s.c.)
(§2) By the method shown in Example 1, 3 mm square tumor fragments (human prostate cancer PC-3, human stomach cancer SC-6, human kidney cancer ACHN and human kidney cancer A498) were subcutaneously implanted in nude mice, and when the tumor volume (long diameter 9 mm, short diameter 8 mm) reached about 100-300 mm^3, FK228 (3.2 mg/kg) was intravenously administered. The tumor growth suppressing rates then were 98%, 84%, 20% and 29%, respectively.

Data set [4] deals with human kidney cancer A498. As to the kind of experiment: Antitumor effect on human kidney cancer A498 tumor fragment implanted s.c. in nude mice. In kind it is in vivo. Particulars: 3.2 mg/kg i.v.
Text: as §1
human kidney cancer A498; obtained from ATCC (tumor fragment 3 mm×3 mm×3 mm/mouse implantation site s.c.)
as §2

The nature of data set [5]: Maximum tolerated dose, intravenous administration to nude mice. The note with it: mouse, in vivo, i.v. Here is the method: The administration was started on the day of grouping (Day 0). FK228 was intravenously administered to an FK228 administration group 3 times every 4 days (q4d×3) (3.2 and 1.8 mg/kg). Paclitaxel (24 mg/kg) was intravenously administered for 5 consecutive days (qd×5) to a positive control substance Paclitaxel administration group. Only a solvent (10% HCO-60/saline) was administered (q4d×3) to a control group. The amount of liquid for each administration was calculated (0.1 mL/10 g body weight) based on the body weight measured on the administration day. Note that 3.2 mg/kg/day (q4d×3) of FK228 and 24 mg/kg/day (qd×5) of Paclitaxel were the maximum tolerated doses (MTD) thereof.

The MTD is the largest dose that counted as tolerated.

As to `C/C=C1\NC(=O)[C@H]2CSSCC/C=C/[C@H](CC(=O)N[C@H](C(C)C)C(=O)N2)OC(=O)[C@H](C(C)C)NC1=O` [FK228], the “antitumor action (tumor growth rate, Relative Tumor Volume)” value in data set [1] (PC-3 in nude mice, FK228 3.2 mg/kg i.v. q4d×3, FIG. 1(a)) was “strong antitumor action”; in data set [2] (ACHN in nude mice, FK228 i.v. q4d×3, FIG. 1(b)) it was “did not show an antitumor action”. In addition, the “tumor growth suppressing rate” value is on record as 98% in data set [1] (PC-3 s.c. in nude mice, 3.2 mg/kg i.v.); 20% in data set [2] (ACHN s.c. in nude mice, 3.2 mg/kg i.v.); 84% in data set [3]; 29% in data set [4]. This compound displayed an MTD in data set [5] (q4d×3, nude mice) of 3.2 mg/kg/day.
In data set [5] (24 mg/kg, qd×5, nude mice), `CC(=O)O[C@H]1C(=O)[C@@]2(C)[C@H]([C@H](OC(=O)c3ccccc3)[C@]3(O)C[C@H](OC(=O)[C@H](O)[C@@H](NC(=O)c4ccccc4)c4ccccc4)C(C)=C1C3(C)C)[C@]1(OC(C)=O)CO[C@@H]1C[C@@H]2O` [Paclitaxel, reference compound] gave an MTD at 5 days of 24 mg/kg/day.

The record behind these values is patent publication US20080233562A1, “Method of Estimating Antitumor Effect of Histone Deacetylase Inhibitor” (Astellas Pharma Inc., priority 2003, published 2008).
